The source of these data is patent publication US8759535B2, “Substituted fused imidazole derivatives, pharmaceutical compositions, and methods of use thereof” (High Point Pharmaceuticals, LLC, priority 2010, dated 2014).

One experiment has as its system HMOX1. The experiment in a line: HMOX1 Protein Assay (immunostaining of HO-1 in NHLF cells, GE InCell 1000). It is filed as cell-based. To be noted: Homo sapiens, fold change above DMSO treated cells, 3 μM compound (asterisk), 16 h. Summed up:
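Fold induction of HO-1 over vehicle, normally at 5 μM compound (asterisk marks 3 μM), in 0.8% DMSO medium. Normal human lung fibroblasts were treated 16 h, then paraformaldehyde-fixed, anti-HO-1/Alexa 488 stained with Hoechst, and read by high-content imaging.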
In general, fold induction refers to the signal under treatment as a multiple of the control signal. A high value points to a large rise in signal. Consider `Cn1c(Nc2nc3ccc(Cl)cc3s2)nc2cc(C(=O)NCCCCCO)ccc21` [Example 227, 2-(6-Chloro-benzothiazol-2-ylamino)-1-methyl-1H-benzoimidazole-5-carboxylic acid (5-hydroxy-pentyl)-amide], for which the fold induction at 3 µM came to 14.

Compound `C[C@@H](NC(=O)c1ccc2c(c1)nc(Nc1nc3ccc(Cl)cc3s1)n2C)C(=O)N(C)C` [Example 467, 2-(6-Chloro-benzothiazol-2-ylamino)-1-methyl-1H-benzoimidazole-5-carboxylic acid ((R)-1-dimethylcarbamoyl-ethyl)-amide] came in with a fold induction at 3 µM of 22.3. As for `CO[C@H]1CCCN(C(=O)CNC(=O)c2ccc3c(c2)nc(Nc2nc4ccc(C(F)(F)F)cc4s2)n3C)C1` [Example 445, 1-Methyl-2-(6-trifluoromethyl-benzothiazol-2-ylamino)-1H-benzoimidazole-5-carboxylic acid [2-((S)-3-methoxy-piperidin-1-yl)-2-oxo-ethyl]-amide], the fold induction at 3 µM came to 36.4. `Cn1c(Nc2nc3ccc(Cl)cc3s2)nc2cc(C(=O)NCC(=O)N3CCCC3)ccc21` [Example 397, 2-(6-Chloro-benzothiazol-2-ylamino)-1-methyl-1H-benzoimidazole-5-carboxylic acid (2-oxo-2-pyrrolidin-1-yl-ethyl)-amide] gave a fold induction at 3 µM of 25.

Still in this experiment, the particulars now being: Homo sapiens, fold change above DMSO treated cells, 5 μM compound, 16 h.
In turn, `CN(C)C1CCN(C(=O)CNC(=O)c2ccc3c(c2)nc(Nc2nc4ccc(OC(F)(F)F)cc4s2)n3C)CC1` [Example 455, 1-Methyl-2-(6-trifluoromethoxy-benzothiazol-2-ylamino)-1H-benzoimidazole-5-carboxylic acid [2-(4-dimethylamino-piperidin-1-yl)-2-oxo-ethyl]-amide] yielded a fold induction at 5 µM of 80.4.

Compound `CN(C)C(=O)CCCNC(=O)c1ccc2c(c1)nc(Nc1nc3ccc(Cl)cc3s1)n2C` [Example 376, 2-(6-Chloro-benzothiazol-2-ylamino)-1-methyl-1H-benzoimidazole-5-carboxylic acid (3-dimethylcarbamoyl-propyl)-amide] displayed a fold induction at 5 µM of 19.1. Same read-out and setting: the result for `COC(=O)c1ccc2c(c1)nc(Nc1nc3ccc(OC(F)(F)F)cc3s1)n2C(C)C` [Example 158, 1-Isopropyl-2-(6-trifluoromethoxy-benzothiazol-2-ylamino)-1H-benzoimidazole-5-carboxylic acid methyl ester] reads 1.7; that for `CN1CCC(NC(=O)c2ccc3c(c2)nc(Nc2nc4ccc(Cl)cc4s2)n3C)CC1` [Example 319, 2-(6-Chloro-benzothiazol-2-ylamino)-1-methyl-1H-benzoimidazole-5-carboxylic acid (1-methyl-piperidin-4-yl)-amide], 23.9. On the same count and under the same terms, the result for `CCOCCNC(=O)c1ccc2c(c1)nc(Nc1nc3ccc(OC(F)(F)F)cc3s1)n2C` [Example 4, 1-Methyl-2-(6-trifluoromethoxy-benzothiazol-2-ylamino)-1H-benzoimidazole-5-carboxylic acid (2-ethoxy-ethyl)-amide] reads 11.9. Same read-out and setting: next, `COCCNC(=O)c1ccc2c(c1)nc(Nc1nc3ccc(OC(F)(F)F)cc3s1)n2C` [Example 8, 1-Methyl-2-(6-trifluoromethoxy-benzothiazol-2-ylamino)-1H-benzoimidazole-5-carboxylic acid (2-methoxy-ethyl)-amide]: 18.3; `Cn1c(Nc2nc3ccc(OC(F)(F)F)cc3s2)nc2cc(C(=O)NCC(=O)N3CCC(CF)CC3)ccc21` [Example 448, 1-Methyl-2-(6-trifluoromethoxy-benzothiazol-2-ylamino)-1H-benzoimidazole-5-carboxylic acid [2-(4-fluoromethyl-piperidin-1-yl)-2-oxo-ethyl]-amide]: 36.7; `COCCNC(=O)c1ccc2c(c1)nc(Nc1nc3ccc(Cl)cc3s1)n2C` [Example 31, 2-(6-Chloro-benzothiazol-2-ylamino)-1-methyl-1H-benzoimidazole-5-carboxylic acid (2-methoxy-ethyl)-amide]: 23.6.

`CN1CC[C@@H](NC(=O)c2ccc3c(c2)nc(Nc2nc4ccc(Cl)cc4s2)n3C)C1` [Example 316, 2-(6-Chloro-benzothiazol-2-ylamino)-1-methyl-1H-benzoimidazole-5-carboxylic acid ((R)-1-methyl-pyrrolidin-3-yl)-amide] showed a fold induction at 5 µM of 18.1. On the same count and under the same terms, next, `Cn1c(Nc2nc3ccc(OC(F)(F)F)cc3s2)nc2cc(C(=O)NCC(=O)N3CCCC(CO)C3)ccc21` (stereo not drawn) [Example 440, 1-Methyl-2-(6-trifluoromethoxy-benzothiazol-2-ylamino)-1H-benzoimidazole-5-carboxylic acid [2-(3-hydroxymethyl-piperidin-1-yl)-2-oxo-ethyl]-amide]: 28.2; `CN(C)C(=O)[C@@H]1CCCN1C(=O)CNC(=O)c1ccc2c(c1)nc(Nc1nc3ccc(Cl)cc3s1)n2C` [Example 419, 2-(6-Chloro-benzothiazol-2-ylamino)-1-methyl-1H-benzoimidazole-5-carboxylic acid [2-((S)-2-dimethylcarbamoyl-pyrrolidin-1-yl)-2-oxo-ethyl]-amide]: 28.

`COC(C)(C)CNC(=O)c1ccc2c(c1)nc(Nc1nc3ccc(OC(F)(F)F)cc3s1)n2C` [Example 22, 1-Methyl-2-(6-trifluoromethoxy-benzothiazol-2-ylamino)-1H-benzoimidazole-5-carboxylic acid (2-methoxy-2-methyl-propyl)-amide] returned a fold induction at 5 µM of 18.7. As to `Cn1c(Nc2nc3ccc(OC(F)(F)F)cc3s2)nc2cc(C(=O)NCC(C)(C)CO)ccc21` [Example 217, 1-Methyl-2-(6-trifluoromethoxy-benzothiazol-2-ylamino)-1H-benzoimidazole-5-carboxylic acid (3-hydroxy-2,2-dimethyl-propyl)-amide], the fold induction at 5 µM was found to be 20.7. Still for that read-out and setting: next, `CCOCCNC(=O)c1cc2nc(Nc3nc4ccc(OC(F)(F)F)cc4s3)n(C)c2cc1OC` [Example 65, 6-Methoxy-1-methyl-2-(6-trifluoromethoxy-benzothiazol-2-ylamino)-1H-benzoimidazole-5-carboxylic acid (2-ethoxy-ethyl)-amide]: 10.2; `CNC(=O)c1ccc2c(c1)nc(Nc1nc3cc(OC(F)(F)F)ccc3s1)n2C` [Example 115, 1-Methyl-2-(5-trifluoromethoxy-benzothiazol-2-ylamino)-1H-benzimidazole-5-carboxylic acid methylamide]: 1.5; `Cc1ccc2nc(Nc3nc4cc(C(=O)O)ccc4n3C)sc2c1` [Example 120, 1-Methyl-2-(6-methyl-benzothiazol-2-ylamino)-1H-benzimidazole-5-carboxylic acid]: 1.7. Same read-out and setting: the result for `Cn1c(Nc2nc3ccc(OC(F)(F)F)cc3s2)nc2cc(C(=O)NCC3CCOCC3)ccc21` [Example 17, 1-Methyl-2-(6-trifluoromethoxy-benzothiazol-2-ylamino)-1H-benzoimidazole-5-carboxylic acid (tetrahydro-pyran-4-ylmethyl)-amide] reads 21.4.
